For one experiment, the system named is ECHCG. Nature of the experiment: Postemergence foliar-applied weed control, direct seeded rice, greenhouse (Example I). In kind it is in vivo, Echinochloa crusgalli (L.) Beauv.
For the next experiment, the system named is PAPRH. Nature of the experiment: Postemergence foliar herbicidal activity of mixtures in cereal crops, greenhouse (Example III). In kind it is in vivo, Papaver rhoeas L. The note with it: foliar-applied. The method, then:
Seeds of the desired test plant species were planted in Sun Gro MetroMix® 306 planting mixture, which typically has a pH of 6.0 to 6.8 and an organic matter content of about 30 percent, in plastic pots with a surface area of 103.2 square centimeters (cm^2). When required to ensure good germination and healthy plants, a fungicide treatment and/or other chemical or physical treatment was applied. The plants were grown for 7-36 days in a greenhouse with an approximate 14 hour photoperiod which was maintained at about 18° C. during the day and about 17° C. during the night. Nutrients and water were added on a regular basis and supplemental lighting was provided with overhead metal halide 1000-Watt lamps as necessary. The plants were employed for testing when they reached the second or third true leaf stage.
Treatments consisted of the benzyl ester of 4-amino-3-chloro-5-fluoro-6-(4-chloro-2-fluoro-3-methoxy-phenyl)pyridine-2-carboxylic acid (Compound A), formulated as an SC, a second cereal herbicide alone and then both in combination.
Other herbicidal components were applied on an active ingredient basis and included PSII-inhibiting herbicides.
Measured aliquots of benzyl ester of 4-amino-3-chloro-5-fluoro-6-(4-chloro-2-fluoro-3-methoxy-phenyl)pyridine-2-carboxylic acid (Compound A) were placed in 25 milliliter (mL) glass vials and diluted in a volume of 1.25% (v/v) Agri-Dex® crop oil concentrate to obtain stock solutions. Compound requirements are based upon a 12 mL application volume at a rate of 187 liters per hectare (L/ha). Spray solutions of the second cereal herbicide and experimental compound mixtures were prepared by adding the stock solutions to the appropriate amount of dilution solution to form 12 mL spray solution with active ingredients in two- and three-way combinations. Formulated compounds were applied to the plant material with an overhead Mandel track sprayer equipped with an 8002E nozzle calibrated to deliver 187 L/ha over an application area of 0.503 square meters (m^2) at a spray height of 18 inches (46 cm) above average plant canopy. Control plants were sprayed in the same manner with the solvent blank.
The treated plants and control plants were placed in a greenhouse as described above and watered by sub-irrigation to prevent wash-off of the test compounds. After 20-22 days, the condition of the test plants as compared with that of the control plants was determined visually and scored on a scale of 0 to 100 percent where 0 corresponds to no injury and 100 corresponds to complete kill.
(§1) Colby's equation was used to determine the herbicidal effects expected from the mixtures (Colby, S. R. 1967. Calculation of the synergistic and antagonistic response of herbicide combinations. Weeds 15:20-22.).
(§2) The following equation was used to calculate the expected activity of mixtures containing two active ingredients, A and B: Expected=A+B−(A×B/100)

The test system of the next experiment is LEFCH. In words: Postemergence foliar-applied weed control, direct seeded rice, greenhouse (Example I). In kind it is in vivo, Leptochloa chinensis (L.) Nees. The conditions noted are these: g ae/ha Compound A Benzyl Ester+g ai/ha saflufenacil: r26 8.75+0, r27 17.5+0, r28 0+5, r29 0+10, r30 8.75+5, r31 17.5+5, r32 8.75+10, r33 17.5+10.
In the next experiment the test system is XANST. Nature of the experiment: Pre-emergence soil-applied weed control, greenhouse (Example IV). In kind it is in vivo, Xanthium strumarium L. From the text:
(§3) Seeds or nutlets of the desired test plant species were planted in a soil matrix prepared by mixing a loam soil (32 percent silt, 23 percent clay, and 45 percent sand, with a pH of about 6.5 and an organic matter content of about 1.9 percent) and calcareous grit in an 80 to 20 ratio. The soil matrix was contained in plastic pots with a volume of 1 quart and a surface area of 83.6 square centimeters (cm^2).
(§4) Treatments consisted of the benzyl ester of 4-amino-3-chloro-5-fluoro-6-(4-chloro-2-fluoro-3-methoxy-phenyl)pyridine-2-carboxylic acid (compound A) formulated as an SC (suspension concentrate) and various herbicidal components alone and in combination. Forms of compound A were applied on an acid equivalent basis.
(§5) Other herbicidal components were applied on an acid equivalent or active ingredient basis and included the protoporphyrinogen oxidase (PPO)-inhibiting herbicides, flumioxazin formulated as Payload® and oxadiazon formulated as Ronstar® 50W.
(§6) Treatment requirements were calculated based upon the rates being tested, the concentration of active ingredient or acid equivalent in the formulation, and a 12 mL application volume at a rate of 187 L/ha.
(§7) For treatments comprised of formulated compounds, measured amounts of compounds were placed individually in 25 mL glass vials and diluted in a volume of 1.25% (v/v) Agri-Dex® crop oil concentrate (COC) to obtain 12× stock solutions. […] Application solutions were prepared by adding an appropriate amount of each stock solution (e.g., 1 mL) and diluted to the appropriate final concentrations with the addition of 10 mL of an aqueous mixture of 1.25% (v/v) COC so that the final spray solutions contained 1.25% (v/v) COC.
(§8) All stock solutions and applications solutions were visually inspected for compound compatibility prior to application. Spray solutions were applied to the soil with an overhead Mandel track sprayer equipped with a 8002E nozzles calibrated to deliver 187 L/ha over an application area of 0.503 m^2 at a spray height of 18 inches (46 cm) above average pot height. Control pots were sprayed in the same manner with the solvent blank.
The treated and control pots were placed in a greenhouse and top watered as needed. When required to ensure good germination and healthy plants, a fungicide treatment and/or other chemical or physical treatment was applied. The pots were maintained in a greenhouse with an approximate 14 hr photoperiod which was maintained at about 29° C. during the day and 26° C. during the night. […] After approximately 4 weeks, the condition of the test plants as compared with that of the untreated plants was determined visually and scored on a scale of 0 to 100 percent where 0 corresponds to no injury or growth inhibition and 100 corresponds to complete kill. […]

The test system of a further experiment is CYPRO. Nature of the experiment: In-water applied weed control, transplanted paddy rice, greenhouse (Example II). In kind it is in vivo, Cyperus rotundus L.
The test system of the next experiment is IPOHE. In words: Pre-emergence soil-applied weed control, greenhouse (Example IV). In kind it is in vivo, Ipomoea hederacea (L.) Jacq.
Description: as §3, §4, §5, §6, §7, §8
The treated and control pots were placed in a greenhouse and top watered as needed. When required to ensure good germination and healthy plants, a fungicide treatment and/or other chemical or physical treatment was applied. The pots were maintained in a greenhouse with an approximate 14 hr photoperiod which was maintained at about 29° C. during the day and 26° C. during the night. Nutrients (Peters® Excel 15-5-15 5-Ca 2-Mg) were applied in the irrigation solution as needed and water was added on a regular basis. Supplemental lighting was provided with overhead metal halide 1000-Watt lamps as necessary. After approximately 4 weeks, the condition of the test plants as compared with that of the untreated plants was determined visually and scored on a scale of 0 to 100 percent where 0 corresponds to no injury or growth inhibition and 100 corresponds to complete kill.
as §1, §2

“And” between values parts separate entries of the source, which are not always exact repeats. Equal entries are not always repeated.

`COc1c(Cl)ccc(-c2nc(C(=O)OCc3ccccc3)c(Cl)c(N)c2F)c1F` [Compound A Benzyl Ester, benzyl ester of 4-amino-3-chloro-5-fluoro-6-(4-chloro-2-fluoro-3-methoxy-phenyl)pyridine-2-carboxylic acid]: the “Visual Weed Control (%) - 21 DAA ECHCG Obs” value in the experiment on ECHCG (g ae/ha Compound A Benzyl Ester+g ai/ha carfentrazone-ethyl: r11 8.75+0, r12 0+3.5, r13 0+7, r14 0+14, r15 8.75+3.5, r16 8.75+7, r17 8.75+14) is 55%; in the experiment on ECHCG (g ae/ha Compound A Benzyl Ester+g ai/ha pyraflufen-ethyl: r11 8+0, r12 0+5.3, r13 0+10.6, r14 8+5.3, r15 8+10.6), 45%. Also, the “Visual Weed Control (%) - 23 DAA ECHCG Obs” value in the experiment with ECHCG (g ae/ha Compound A Benzyl Ester+g ai/ha oxyfluorfen (SC): r25 4.38+0, r26 0+90, r27 0+180, r28 0+360, r29 4.38+90, r30 4.38+180, r31 4.38+360) is given as 40%. Also, the “Visual Weed Control (%) - 21 DAA PAPRH Obs” value is given as 28% with PAPRH (5 g ai/ha alone) and 35% in the experiment with PAPRH (10 g ai/ha alone). In addition, in the experiment on LEFCH, the “Visual Weed Control (%) - 20 DAA LEFCH Obs” value was 30% and 50%. Also, the results for the “Visual Weed Control (%) - 29 DAA XANST Obs” value in the experiment on XANST (16 g ae/ha alone) and in the experiment with XANST (32 g ae/ha alone) were 0% and 5%, respectively. Besides, the “Visual Weed Control (%) - 21 DAA CYPRO Obs” value is reported as 30% in the experiment on CYPRO (4.38 g ae/ha alone); 60% in the experiment on CYPRO (8.75 g ae/ha alone); 90% with CYPRO (g ae/ha Compound A Benzyl Ester+g ai/ha oxyfluorfen (SC): r11 32+0, r12 0+135, r13 0+270, r14 32+135, r15 32+270). Further, the “Visual Weed Control (%) - 20 DAA CYPRO Obs” value in the experiment on CYPRO (g ae/ha Compound A Benzyl Ester+g ai/ha pyraclonil: r19 4.38+0, r20 8.75+0, r21 0+45, r22 0+90, r23 4.38+45, r24 8.75+45, r25 4.38+90, r26 8.75+90) is 20%. Moreover, the “Visual Weed Control (%) - 32 DAA IPOHE Obs” value in the experiment with IPOHE (8 g ae/ha alone) was found to be 65%; in the experiment on IPOHE (16 g ae/ha alone), 83%. Moreover, the “Visual Weed Control (%) - 28 DAA IPOHE Obs” value in the experiment on IPOHE (16 g ae/ha alone) stood at 13%; in the experiment with IPOHE (32 g ae/ha alone) it was 23%.

Source of the values: patent US8916499B2, “Herbicidal compositions comprising 4-amino-3-chloro-5-fluoro-6-(4-chloro-2-fluoro-3-methoxyphenyl) pyridine-2-carboxylic acid or a derivative thereof and a protoporphyrinogen oxidase inhibitor” (Dow AgroSciences LLC, priority 2012, dated 2014).
